Several values for one entry are separate records, joined by “and”; a condition that tells them apart may be missing. Equal values may be shown once. Toxic doses and inconclusive results are not listed. The calls were made as follows: active = survival T/C of 150% or more; inactive = T/C below 125% in these data. Peptide text beside a SMILES is read from it. * marks the point of attachment. Trt = c1ccc(C(c2ccccc2)(c2ccccc2)*)cc1; Bn = c1ccc(C*)cc1
System: P388 leukemia ip, CD2F1 mice, survival T/C
Test: NCI In Vivo Anticancer Drug Screen. Data for tumor model P388 Leukemia (intraperitoneal) in CD2F1 (CDF1) mice
Conditions: endpoint: median survival time, higher = longer survival
How it was run: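 Mice carrying the transplanted tumor received test compound or vehicle. Survival was recorded in each group, and the value is the treated-group measurement divided by that of the vehicle-treated control group.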

[1] = dose: 50.0 mg/kg/injection, schedule: Q01DX009 (ip), vehicle: Klucel (hydroxypropylcellulose) (HPC)
[2] = dose: 100.0 mg/kg/injection, schedule: Q01DX009 (ip), vehicle: Klucel (hydroxypropylcellulose) (HPC)
[3] = dose: 200.0 mg/kg/injection, schedule: Q01DX009 (ip), vehicle: Klucel (hydroxypropylcellulose) (HPC)
[4] = dose: 50.0 mg/kg/injection, schedule: Q01DX009 (ip), vehicle: saline
[5] = dose: 100.0 mg/kg/injection, schedule: Q01DX009 (ip), vehicle: saline
[6] = dose: 12.5 mg/kg/injection, schedule: Q01DX009 (ip), vehicle: saline with Tween-80
[7] = dose: 25.0 mg/kg/injection, schedule: Q01DX009 (ip), vehicle: saline with Tween-80
[8] = dose: 50.0 mg/kg/injection, schedule: Q01DX009 (ip), vehicle: saline with Tween-80
[9] = dose: 60.0 mg/kg/injection, schedule: Q01DX005 (ip), vehicle: saline with Tween-80
[10] = dose: 120.0 mg/kg/injection, schedule: Q01DX005 (ip), vehicle: saline with Tween-80
[11] = dose: 240.0 mg/kg/injection, schedule: Q01DX005 (ip), vehicle: saline with Tween-80
[12] = dose: 100.0 mg/kg/injection, schedule: Q01DX009 (ip), vehicle: saline with Tween-80
[13] = dose: 100.0 mg/kg/injection, schedule: Q04DX003 (ip), vehicle: saline with Tween-80
[14] = dose: 12.5 mg/kg/injection, schedule: Q01DX009 (ip), vehicle: saline
[15] = dose: 12.5 mg/kg/injection, schedule: Q01DX005 (ip), vehicle: Klucel (hydroxypropylcellulose) (HPC)
[16] = dose: 25.0 mg/kg/injection, schedule: Q01DX005 (ip), vehicle: Klucel (hydroxypropylcellulose) (HPC)
[17] = dose: 50.0 mg/kg/injection, schedule: Q01DX005 (ip), vehicle: Klucel (hydroxypropylcellulose) (HPC)
[18] = dose: 100.0 mg/kg/injection, schedule: Q01DX005 (ip), vehicle: Klucel (hydroxypropylcellulose) (HPC)
[19] = dose: 200.0 mg/kg/injection, schedule: Q01DX005 (ip), vehicle: Klucel (hydroxypropylcellulose) (HPC)

Measured: T/C

CC(=O)NC(CC(C)C)C(=O)NC(CC(C)C)C(=O)NC(C=O)CCCN=C(N)N (stereo unspecified)
inactive: dose: 100.0 mg/kg/injection, schedule: Q01DX001 (ip), vehicle: saline 106 % of control | dose: 200.0 mg/kg/injection, schedule: Q01DX001 (ip), vehicle: saline 105 % of control

COc1ccccc1C(O)(C(F)(F)F)C(F)(F)F
inactive: [1] 101 % of control | [2] 98 % of control | [3] 95 % of control

COC(=O)C(CSC(c1ccccc1)(c1ccccc1)c1ccccc1)NC(=O)C(CSCc1ccccc1)NC(C)=O (stereo unspecified) (Ac-Cys(Bn)-Cys(Trt)-OMe; configuration not given here)
inactive: dose: 4.0 mg/kg/injection, schedule: Q01DX009 (ip), vehicle: water 96 % of control | dose: 8.0 mg/kg/injection, schedule: Q01DX009 (ip), vehicle: water 104 % of control | dose: 16.0 mg/kg/injection, schedule: Q01DX009 (ip), vehicle: water 101 % of control | dose: 32.0 mg/kg/injection, schedule: Q01DX009 (ip), vehicle: water 95 % of control | dose: 64.0 mg/kg/injection, schedule: Q01DX009 (ip), vehicle: water 95 % of control | dose: 128.0 mg/kg/injection, schedule: Q01DX009 (ip), vehicle: water 90 % of control

C=C(/C=C/C1OC2OC(C)(C)OC2C1OC)OP(=O)(OCC)OCC (stereo unspecified)
inactive: dose: 100.0 mg/kg/injection, schedule: Q04DX002 (ip), vehicle: saline with Tween-80 103 % of control | dose: 200.0 mg/kg/injection, schedule: Q04DX002 (ip), vehicle: saline with Tween-80 100 % of control | dose: 400.0 mg/kg/injection, schedule: Q04DX002 (ip), vehicle: saline with Tween-80 91 % of control

Cn1c(=O)c2c(nnc(-c3ccc(Cl)c(Cl)c3)[n+]2[O-])n(C)c1=O
inactive: dose: 25.0 mg/kg/injection, schedule: Q01DX001 (ip), vehicle: Klucel (hydroxypropylcellulose) (HPC) 103 % of control

CC(=O)ON(C(C)=O)c1ccc(C(=O)OC2(C)CC(C)(C)[N+]([O-])=N2)cc1 (stereo unspecified) (tested in a mixture with another compound)
inactive: dose: 12.5 mg/kg/injection, schedule: Q01DX009 (ip), vehicle: water 95 % of control | dose: 25.0 mg/kg/injection, schedule: Q01DX009 (ip), vehicle: water 101 % of control | dose: 50.0 mg/kg/injection, schedule: Q01DX009 (ip), vehicle: water 94 % of control | dose: 200.0 mg/kg/injection, schedule: Q01DX009 (ip), vehicle: water 106 % of control

O=C(O)C1CSC(c2ccncc2)N1 (stereo unspecified)
inactive: [4] 96 % of control and 97 % of control | [5] 96 % of control | dose: 200.0 mg/kg/injection, schedule: Q01DX009 (ip), vehicle: saline 94 % of control

O=C(O)CC12CC3CC(CC(O)(C3)C1)C2
inactive: [1] 100 % of control | [2] 109 % of control | [3] 90 % of control

Cc1cc(N(C)C)nc2cc(N)ccc12
inactive: [6] 103 % of control | [7] 111 % of control | [8] 101 % of control and 89 % of control

N#CN=[N+]([O-])c1ccccc1
inactive: dose: 6.25 mg/kg/injection, schedule: Q04DX003 (ip), vehicle: Klucel (hydroxypropylcellulose) (HPC) 100 % of control | dose: 12.5 mg/kg/injection, schedule: Q04DX003 (ip), vehicle: Klucel (hydroxypropylcellulose) (HPC) 105 % of control | dose: 25.0 mg/kg/injection, schedule: Q04DX003 (ip), vehicle: Klucel (hydroxypropylcellulose) (HPC) 106 % of control and 96 % of control

O=S1(=O)C(=C(c2ccccc2)c2ccccc2)S(=O)(=O)c2ccccc21
inactive: [9] 104 % of control | [10] 96 % of control | [11] 102 % of control

S=c1nn[nH]n1-c1ccccc1
inactive: dose: 25.0 mg/kg/injection, schedule: Q04DX003 (ip), vehicle: saline with Tween-80 100 % of control | [8] 110 % of control | dose: 50.0 mg/kg/injection, schedule: Q04DX003 (ip), vehicle: saline with Tween-80 100 % of control | [12] 110 % of control | [13] 100 % of control and 91 % of control

NC(=S)c1cn(C2OC(CO)C(O)C2O)c2ncnc(N)c12 (stereo unspecified)
inactive: dose: 0.31 mg/kg/injection, schedule: Q01DX009 (ip), vehicle: saline 100 % of control | dose: 0.63 mg/kg/injection, schedule: Q01DX009 (ip), vehicle: saline 109 % of control | dose: 1.4 mg/kg/injection, schedule: Q01DX009 (ip), vehicle: saline with Tween-80 119 % of control | dose: 5.0 mg/kg/injection, schedule: Q01DX009 (ip), vehicle: saline with Tween-80 86 % of control

CC1(C)C[C@H]2C=C(C=O)[C@]34C[C@]3(C(=O)OC4O)[C@H]2C1 (stereo partly specified)
inactive: dose: 0.18 mg/kg/injection, schedule: Q01DX009 (ip), vehicle: Klucel (hydroxypropylcellulose) (HPC) 103 % of control | dose: 0.78 mg/kg/injection, schedule: Q01DX009 (ip), vehicle: Klucel (hydroxypropylcellulose) (HPC) 111 % of control and 120 % of control | dose: 1.56 mg/kg/injection, schedule: Q01DX009 (ip), vehicle: Klucel (hydroxypropylcellulose) (HPC) 106 % of control and 117 % of control

CCOC(=O)/C=C(/C)SC1=CC(=O)c2ccccc2C1=O
inactive: dose: 1.56 mg/kg/injection, schedule: Q01DX009 (ip), vehicle: saline 91 % of control | dose: 6.25 mg/kg/injection, schedule: Q01DX009 (ip), vehicle: saline 98 % of control | [6] 119 % of control | [14] 100 % of control

COC1CC2C=CC3C4OC2(/C(C)=C/C(C)C(C(C)O)OC1=O)C3C(O)C(C)C4OC(=O)c1ccc[nH]1 (stereo unspecified)
inactive: [15] 104 % of control | [16] 99 % of control | [17] 95 % of control | [18] 99 % of control | [19] 98 % of control

C(=C\c1csnn1)/c1ccc(/C=C/c2csnn2)cc1
inactive: [9] 100 % of control | [10] 100 % of control | [11] 100 % of control

CCOC(=O)C1=C(c2ccccc2)OC(N)=C(C#N)C1c1ccccc1Cl (stereo unspecified)
inactive: [17] 96 % of control | [18] 105 % of control | [19] 107 % of control

C[n+]1c(C2(C)CCCO2)sc2ccccc21 (stereo unspecified)
inactive: dose: 60.0 mg/kg/injection, schedule: Q01DX005 (ip), vehicle: saline 103 % of control

CC1=NCCN=C(C)C1N=Nc1ccc(S(=O)(=O)Nc2ncccn2)cc1
inactive: [13] 96 % of control | dose: 200.0 mg/kg/injection, schedule: Q04DX003 (ip), vehicle: saline with Tween-80 93 % of control | dose: 400.0 mg/kg/injection, schedule: Q04DX003 (ip), vehicle: saline with Tween-80 99 % of control

O=C(O)CCCNSc1ccccc1[N+](=O)[O-]
inactive: [14] 100 % of control and 117 % of control | dose: 25.0 mg/kg/injection, schedule: Q01DX009 (ip), vehicle: saline 108 % of control and 94 % of control | [4] 99 % of control and 110 % of control | [5] 100 % of control and 108 % of control

O=C(O)c1cnc2cc3c(cc2c1Nc1cccc(C(F)(F)F)c1)OCO3
inactive: dose: 60.0 mg/kg/injection, schedule: Q01DX005 (ip), vehicle: Klucel (hydroxypropylcellulose) (HPC) 99 % of control | dose: 120.0 mg/kg/injection, schedule: Q01DX005 (ip), vehicle: Klucel (hydroxypropylcellulose) (HPC) 96 % of control | dose: 240.0 mg/kg/injection, schedule: Q01DX005 (ip), vehicle: Klucel (hydroxypropylcellulose) (HPC) 96 % of control

CC(C)CC1[NH][Sn]2([NH]C(CC(C)C)C(=O)[O]2)[O]C1=O (stereo unspecified)
inactive: dose: 6.25 mg/kg/injection, schedule: Q01DX005 (ip), vehicle: Klucel (hydroxypropylcellulose) (HPC) 104 % of control | [15] 105 % of control | [16] 104 % of control

Clc1ccc2oc(N3CCOCC3)nc2c1
inactive: [9] 103 % of control | [10] 96 % of control | [11] 87 % of control

CC(CCc1ccccc1)NC(C)C(O)c1ccc(O)cc1 (stereo unspecified)
inactive: [7] 100 % of control | [8] 100 % of control | [12] 90 % of control

Cc1csc(Cl)c1NC1=NCCN1
inactive: dose: 50.0 mg/kg/injection, schedule: Q01DX005 (ip), vehicle: saline 104 % of control | dose: 100.0 mg/kg/injection, schedule: Q01DX005 (ip), vehicle: saline 107 % of control

CC(C)n1cnc2c(=S)nc[nH]c21
inactive: [7] 90 % of control | [8] 100 % of control | [12] 109 % of control

From PubChem BioAssay AID330 (DTP/NCI, 2004)
